{
  "source": "patent US12636313B2",
  "about": "“Nutraceutical or pharmaceutical composition comprising iron pyrophosphate for treating and/or preventing iron deficiency conditions or diseases” (NEILOS S.R.L., priority 2019, dated 2026)",
  "key": {"[1]": {"tested_on": "subjects with advanced cancer and plasma iron levels below 60 μg/dL", "conditions": "30 mg/day, 30-day treatment, 42 subjects with advanced cancer; cited from earlier work"}, "[2]": {"conditions": "after 120 minutes in sham gastric environment, 0.1 M HCl, 37° C., 75 rpm, six replicates", "protocol": "1 g of sample was weighed and introduced into the container of the dissolving apparatus containing 900 mL of 0.1 M HCl. The dissolution was performed for 2 h at 37° C. and 75 rpm. After dissolution, 1 mL of sample was diluted to 50 mL with 0.1 M HCl. The preparation was performed in six replicates for each sample."}},
  "data": [
    {"smiles": "O=P([O-])([O-])OP(=O)([O-])[O-].O=P([O-])([O-])OP(=O)([O-])[O-].O=P([O-])([O-])OP(=O)([O-])[O-].[Fe+3].[Fe+3].[Fe+3].[Fe+3]", "note": "[iron pyrophosphate as such, iron pyrophosphate]", "values": [
      {"measurement": "ferritinaemia level", "setting": "[1]", "value": "enhanced"},
      {"measurement": "haemoglobinaemia level", "setting": "[1]", "value": "enhanced"},
      {"measurement": "side effects", "setting": "[1]", "value": "without appearance of side effects"},
      {"measurement": "sideraemia level", "setting": "[1]", "value": "enhanced"},
      {"measurement": "amount of iron released", "setting": "[2]", "value": "7.5 g per 100 g of formulation"}
    ]}
  ]
}
